Test results as given in patent publication US20220162206A1, “NOVEL AZAINDOLE DERIVATIVE” (KOWA COMPANY, LTD., priority 2019, published 2022).

Key:
CSF-1R (Fms, active) = biological target: T1, CSF-1R (Fms, active) (Homo sapiens, UniProt P07333); assay: Evaluation of CSF-1R inhibitory activity by TR-FRET method (HTRF KinEASE-TK kit); format: biochemical; settings: for IC50: TR-FRET method, phosphorylation of substrate peptide, enzyme 0.05 μg/mL; for inhibitory activities against CSF-1R (in words): statement referring to the Test Examples
T1 construct: purchased Eurofins DiscoverX Products, LLC 14-551
T1 sequence (P07333 20-972): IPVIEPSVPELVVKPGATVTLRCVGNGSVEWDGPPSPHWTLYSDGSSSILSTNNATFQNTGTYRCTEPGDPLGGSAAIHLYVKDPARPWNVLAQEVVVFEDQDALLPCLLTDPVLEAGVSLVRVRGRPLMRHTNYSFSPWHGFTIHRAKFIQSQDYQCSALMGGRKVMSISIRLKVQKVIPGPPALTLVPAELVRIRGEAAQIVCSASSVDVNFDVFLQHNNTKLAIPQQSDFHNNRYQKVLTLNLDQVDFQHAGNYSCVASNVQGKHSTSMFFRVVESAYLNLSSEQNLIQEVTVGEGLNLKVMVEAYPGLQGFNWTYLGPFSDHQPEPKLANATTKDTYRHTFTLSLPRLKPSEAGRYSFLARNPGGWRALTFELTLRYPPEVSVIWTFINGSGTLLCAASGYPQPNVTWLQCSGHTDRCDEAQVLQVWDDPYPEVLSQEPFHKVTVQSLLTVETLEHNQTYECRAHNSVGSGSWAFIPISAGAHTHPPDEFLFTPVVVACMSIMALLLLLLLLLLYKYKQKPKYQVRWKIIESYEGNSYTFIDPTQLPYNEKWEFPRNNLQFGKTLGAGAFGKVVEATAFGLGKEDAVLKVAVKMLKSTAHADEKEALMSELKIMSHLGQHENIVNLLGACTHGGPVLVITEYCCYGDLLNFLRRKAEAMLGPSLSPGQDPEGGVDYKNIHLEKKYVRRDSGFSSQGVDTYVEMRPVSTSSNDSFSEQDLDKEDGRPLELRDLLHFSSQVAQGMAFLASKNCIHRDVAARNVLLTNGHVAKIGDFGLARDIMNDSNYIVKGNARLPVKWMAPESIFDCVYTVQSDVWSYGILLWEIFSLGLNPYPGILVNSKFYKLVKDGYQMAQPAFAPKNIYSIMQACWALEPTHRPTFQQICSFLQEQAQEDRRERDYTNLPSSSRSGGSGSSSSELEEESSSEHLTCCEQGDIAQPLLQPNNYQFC
Method: The CSF-1R inhibitory activity of an inventive compound was evaluated by a TR-FRET method using phosphorylation of a substrate peptide of CSF-1R as the index.
The inventive compound was dissolved in dimethyl sulfoxide sterilized by filtration to prepare a 10 μmol/L solution. This solution was dispensed using an acoustic noncontact type nanoliter dispenser (Echo 550, LABCYTE Inc.) such that the final concentrations were within a range from 0.25 to 180 nmol/L.
The assay was performed using an HTRF™ KinEASE™-TK kit (Cisbio Bioassays, 62TK0PEC) by the procedure in accordance with the manual (62TK0PEC rev04(2009)). In the assay, a 384-well plate (Greiner 784076 Black 384 well, Small volume, Greiner Bio-One International GmbH) was used. The enzyme was Fms, active (14-551, Eurofins DiscoverX Products, LLC), which was prepared such that the final concentration was 0.05 μg/mL. TR-FRET measurement (fluorescence of 620 nm and 665 nm) was performed using an HTRF-dedicated microplate reader (K-101, Kyoritsu Radio Service Co., Ltd.). The proportion of the fluorescence quantity at each wavelength as the index of phosphorylation [((quantity of 665 nm fluorescence)/(quantity of 620 nm fluorescence))×10,000] was calculated, and the IC50 value was determined by statistical treatment of the proportion of the fluorescence quantity at each compound concentration.

[1] = system: human non-small cell lung cancer cell line NCI-H460; assay: Antitumor effect in human non-small cell lung cancer cell line NCI-H460 subcutaneously transplanted nude mouse model; format: in vivo, BALB/c-nu/nu mouse; settings: 300 mg/kg by gavage
Method: The antitumor effect of the inventive compound was examined using a human non-small cell lung cancer cell line NCI-H460 subcutaneously transplanted nude mouse model.
A cell culture medium was prepared by adding 5.6 mL of Penicillin-Streptomycin (Sigma-Aldrich Co. LLC), 56 mL of FBS (MP Biomedicals), 5.6 mL of 1 mol/L HEPES (Sigma-Aldrich Co. LLC), 5.6 mL of 100 mmol/L Sodium Pyruvate (Life Technologies), and 1.4 g of D-(+)-Glucose (Wako Pure Chemical Industries, Ltd.) to a RPMI1640 culture medium (Sigma-Aldrich Co. LLC). NCI-H460 cells (American Type Culture Collection) were cultured using the prepared culture medium at 37° C. in a 5% CO2 incubator.
The cultured NCI-H460 cells were suspended in PBS. […]
From the day of grouping, the administration solutions were administered by gavage to mice transplanted with cancer cells (15 mice in each group) for the total of 22 days, once a day on the day of the grouping and the last day and twice a day on other days. […] The administration volume was calculated from the last body weight of each.
The tumor volume of each mouse was calculated by the following equation, and the antitumor effect was evaluated using the tumor volume as the index. […]

| IC50 (CSF-1R (Fms, active)) [nM] | inhibitory activities against CSF-1R (in words) (CSF-1R (Fms, active)) | Compound | Tumor growth inhibition rate (TGI %) ([1]; 22 days, last administration day, NCI-H460 nude mouse) [%] | tumor growth inhibition (in words, FIG. 1) ([1]; tumor volume vs Control group, Student's t test) |
| --- | --- | --- | --- | --- |
| < 10 | potent inhibitory activities | CC(=O)N1CC=C(c2[nH]c3ncc(C#CCCO)cc3c2CC(C)C)CC1 [Example 7, 1-(4-(5-(4-hydroxybut-1-yn-1-yl)-3-isobutyl-1H-pyrrolo[2,3-b]pyridin-2-yl)-3,6-dihydropyridin-1(2H)-yl)ethan-1-one] |  |  |
| < 10 | potent inhibitory activities | CC(=O)N1CC=C(c2[nH]c3ncc(C#CCCO)cc3c2CC2CCOCC2)CC1 [Example 8, 1-(4-(5-(4-hydroxybut-1-yn-1-yl)-3-((tetrahydro-2H-pyran-4-yl)methyl)-1H-pyrrolo[2,3-b]pyridin-2-yl)-3,6-dihydropyridin-1(2H)-yl)ethan-1-one] |  |  |
| 10 to 30 | potent inhibitory activities | COc1ccc(-c2[nH]c3ncc(C#CCCO)cc3c2CN2CCOCC2)cc1OC [Example 3, 4-(2-(3,4-dimethoxyphenyl)-3-(morpholinomethyl)-1H-pyrrolo[2,3-b]pyridin-5-yl)but-3-yn-1-ol] |  |  |
| < 10 | potent inhibitory activities | OCCC#Cc1cnc2[nH]c(-c3ccc(N4CCC(O)CC4)cc3)c(CN3CCOCC3)c2c1 [Example 5, 1-(4-(5-(4-hydroxybut-1-yn-1-yl)-3-(morpholinomethyl)-1H-pyrrolo[2,3-b]pyridin-2-yl)phenyl)piperidin-4-ol] |  |  |

The remaining lines, values behind:

| Compound | IC50 (CSF-1R (Fms, active)) [nM] | inhibitory activities against CSF-1R (in words) (CSF-1R (Fms, active)) | Tumor growth inhibition rate (TGI %) ([1]; 22 days, last administration day, NCI-H460 nude mouse) [%] | tumor growth inhibition (in words, FIG. 1) ([1]; tumor volume vs Control group, Student's t test) |
| --- | --- | --- | --- | --- |
| OCCC#Cc1cnc2[nH]c(-c3ccc(N4CCOCC4)cc3)c(CN3CCOCC3)c2c1 [Example 4, 4-(3-(morpholinomethyl)-2-(4-morpholinophenyl)-1H-pyrrolo[2,3-b]pyridin-5-yl)but-3-yn-1-ol] | < 10 | potent inhibitory activities |  |  |
| COc1ccc(-c2[nH]c3ncc(C#CCCO)cc3c2CN2CCOCC2)cc1 [Example 1, 4-(2-(4-methoxyphenyl)-3-(morpholinomethyl)-1H-pyrrolo[2,3-b]pyridin-5-yl)but-3-yn-1-ol] | 30 to 100 | potent inhibitory activities | 61 | significant tumor growth inhibition |
| COc1ccc(-c2[nH]c3ncc(C#CCCO)cc3c2CN2C3CCC2COC3)cc1 [Example 2, 4-(3-((3-oxa-8-azabicyclo[3.2.1]octan-8-yl)methyl)-2-(4-methoxyphenyl)-1H-pyrrolo[2,3-b]pyridin-5-yl)but-3-yn-1-ol] | 10 to 30 | potent inhibitory activities |  |  |
| COc1ccc(-c2[nH]c3ncc(C#CCCO)cc3c2CC2CCOCC2)cn1 [Example 9, 4-(2-(6-methoxypyridin-3-yl)-3-((tetrahydro-2H-pyran-4-yl)methyl)-1H-pyrrolo[2,3-b]pyridin-5-yl)but-3-yn-1-ol] | < 10 | potent inhibitory activities |  |  |
| COc1cc(-c2[nH]c3ncc(C#CCCO)cc3c2CN2C3CCC2COC3)ccc1OC1COC1 [Example 6, 4-(3-((3-oxa-8-azabicyclo[3.2.1]octan-8-yl)methyl)-2-(3-methoxy-4-(oxetan-3-yloxy)phenyl)-1H-pyrrolo[2,3-b]pyridin-5-yl)but-3-yn-1-ol] | 10 to 30 | potent inhibitory activities |  |  |
